Assay results from PMC10865806, “Structural insights into the molecular mechanism of high-level ceftazidime–avibactam resistance conferred by CMY-185” (mBio, 2024).

Columns and labels:
Assay type in all cases: biochemical, Escherichia coli
[1] = target: T1, CMY-2 variant Q120K_N346Y (Klebsiella pneumoniae, UniProt Q48434, N366Y/Q140K); assay: Steady-state hydrolysis kinetics; conditions: PBS pH 7.2, 25°C
T1 construct: all CMY-2 variant genes encoding the mature enzyme without a signal peptide were cloned into the protein expression plasmid vector pET-30b; made in house; host or cells: E. coli BL21 (DE3), pET-30b
Description: (§1) We tested the enzymes, CMY-2, two single mutants V211S (CMY-42) and N346Y, three double mutants A114E_N346Y, Q120K_N346Y, and V211S_N346Y, and the quadruplet mutant CMY-185 to elucidate the impact on the kinetic properties resulting from the four amino acid substitutions present in CMY-185 compared with CMY-2 ([8]). The steady-state kinetic parameters kcat and Km (or Ki app) for nitrocefin, cephalothin, ceftazidime, and cefiderocol and the inhibition parameters Ki app, k2/K, k−2, and koff for avibactam are summarized in Table 1. During the hydrolysis of nitrocefin, we observed the reduction of the initial velocity at concentrations above 50 µM particularly for the CMY-2 variants harboring the N346Y substitution. As this could have represented substrate inhibition, we then determined the kinetics parameters for nitrocefin using the Haldane equation ([16]). […] In addition, during the hydrolysis of cefiderocol by CMY-185, the initial velocities at a concentration range of 3.7–59.4 µM were similar.
(§2) The steady-state kinetics were carried out on a UV-Visible spectrometer (UV-1280, Shimadzu, Japan) in PBS pH 7.2 at 25°C with a constant amount of enzyme and varying concentrations of the substrates. We tested nitrocefin, cephalothin, ceftazidime, and cefiderocol as the substrates and avibactam as the inhibitor. The steady-state kinetics parameters Km and kcat were determined with the Michaelis-Menten equation. For poorly hydrolyzed substrates, the Km value was assumed to be the competitive inhibition constant (Ki app) value according to previous studies ([17], [19]). Inhibition parameter values of Ki app, k2/K, k−2, and koff for avibactam were determined using a method as described previously ([33]). Cephalothin was used as the reporter substrate for competitive inhibition experiments, and its concentration was fixed at 100 µM. The enzyme concentration was 1–10 nM. Inverse steady-state initial velocities were plotted against the concentration of the competitive inhibitor agents, such as ceftazidime, cefiderocol, and avibactam. The data were analyzed by linear regression analysis of the Dixon plot, and Ki app (observed) was determined by dividing the y-intercept value by the slope of the line. It was then corrected to account for the affinity of cephalothin for each enzyme using the Equation (1): […]

CMY-185 = target: T2, CMY-185 (Klebsiella pneumoniae, UniProt Q48434, A134E/N366Y/Q140K/V231S); assay: Steady-state hydrolysis kinetics; conditions: PBS pH 7.2, 25°C
T2 construct: all CMY-2 variant genes encoding the mature enzyme without a signal peptide were cloned into the protein expression plasmid vector pET-30b; made in house; host or cells: E. coli BL21 (DE3), pET-30b
Description: as §1, §2

V211S (CMY-42) = target: T3, V211S (CMY-42) (Klebsiella pneumoniae, UniProt Q48434, V231S); assay: Steady-state hydrolysis kinetics; conditions: PBS pH 7.2, 25°C
T3 construct: all CMY-2 variant genes encoding the mature enzyme without a signal peptide were cloned into the protein expression plasmid vector pET-30b; made in house; host or cells: E. coli BL21 (DE3), pET-30b
Description: as §1, §2

[2] = target: T4, CMY-2 variant V211S_N346Y (Klebsiella pneumoniae, UniProt Q48434, N366Y/V231S); assay: Steady-state hydrolysis kinetics; conditions: V211S_N346Y; PBS pH 7.2, 25°C
T4 construct: all CMY-2 variant genes encoding the mature enzyme without a signal peptide were cloned into the protein expression plasmid vector pET-30b; made in house; host or cells: E. coli BL21 (DE3), pET-30b
Description: as §1, §2

CMY-2 [3] = target: T5, CMY-2 (Klebsiella pneumoniae, UniProt Q48434); assay: Steady-state hydrolysis kinetics; conditions: substrate 100 µM, 100–200 nM enzyme
T5 construct: all CMY-2 variant genes encoding the mature enzyme without a signal peptide were cloned into the protein expression plasmid vector pET-30b; made in house; host or cells: E. coli BL21 (DE3), pET-30b
Description: as §1
as §2, with “The enzyme concentration was 1–10 nM.” left out

[4] = target: T6, CMY-2 variant A114E_N346Y (Klebsiella pneumoniae, UniProt Q48434, A134E/N366Y); assay: Steady-state hydrolysis kinetics
T6 construct: all CMY-2 variant genes encoding the mature enzyme without a signal peptide were cloned into the protein expression plasmid vector pET-30b; made in house; host or cells: E. coli BL21 (DE3), pET-30b
Description: as §1
as §2, with “The enzyme concentration was 1–10 nM.” left out

CMY-2 variant N346Y [5] = target: T7, CMY-2 variant N346Y (Klebsiella pneumoniae, UniProt Q48434, N366Y); assay: Steady-state hydrolysis kinetics
T7 construct: all CMY-2 variant genes encoding the mature enzyme without a signal peptide were cloned into the protein expression plasmid vector pET-30b; made in house; host or cells: E. coli BL21 (DE3), pET-30b
Description: as §1
as §2, with “The enzyme concentration was 1–10 nM.” left out

CMY-2 [6] = target: T5, CMY-2; assay: Competitive inhibition of cephalothin hydrolysis and avibactam inhibition kinetics; conditions: reporter substrate cephalothin 100 µM, Dixon plot, read-out: Ki app
Description: as §1
(§3) The steady-state kinetics were carried out on a UV-Visible spectrometer (UV-1280, Shimadzu, Japan) in PBS pH 7.2 at 25°C with a constant amount of enzyme and varying concentrations of the substrates. We tested nitrocefin, cephalothin, ceftazidime, and cefiderocol as the substrates and avibactam as the inhibitor. The steady-state kinetics parameters Km and kcat were determined with the Michaelis-Menten equation. For poorly hydrolyzed substrates, the Km value was assumed to be the competitive inhibition constant (Ki app) value according to previous studies ([17], [19]). Inhibition parameter values of Ki app, k2/K, k−2, and koff for avibactam were determined using a method as described previously ([33]). Cephalothin was used as the reporter substrate for competitive inhibition experiments, and its concentration was fixed at 100 µM. The enzyme concentration was 1–10 nM. Inverse steady-state initial velocities were plotted against the concentration of the competitive inhibitor agents, such as ceftazidime, cefiderocol, and avibactam. The data were analyzed by linear regression analysis of the Dixon plot, and Ki app (observed) was determined by dividing the y-intercept value by the slope of the line. It was then corrected to account for the affinity of cephalothin for each enzyme using the Equation (1):
(§4) (1) Ki app=Ki app (observed)/{1+[S]/Km (cephalothin)}
(§5) where [S] represents the concentration of the reporter substrate cephalothin, and Km (cephalothin) is the Km value of cephalothin for each enzyme.
(§6) The koff value was determined using a jump dilution assay. The enzyme and avibactam were mixed and preincubated at 25°C for 5 min. The concentration of avibactam depended on the enzyme and concentrations 10-fold higher from each Ki app (observed) value were adopted, which were determined based on the corrected competitive inhibition constants Ki app. Preincubated enzyme-avibactam mixture was then diluted 2,000-fold in the 100 µM cephalothin solution, and the hydrolysis of cephalothin was measured. Three independent measurements were performed for each enzyme and substrate or inhibitor combination. Curve fittings using linear or non-linear regression were performed with R 4.1.3 (R Core Team, 2022).

[7] = target: T6, CMY-2 variant A114E_N346Y; assay: as above; conditions: reporter substrate cephalothin 100 µM, Dixon plot, read-out: Ki app
Description: as §1, §3, §4, §5, §6

CMY-2 variant N346Y [8] = target: T7, CMY-2 variant N346Y; assay: as above; conditions: N346Y; reporter substrate cephalothin 100 µM, Dixon plot; read-out: Ki app
Description: as §1, §3, §4, §5, §6

[9] = tested on: CC(=O)OCC1=C(C(=O)O)N2C(=O)[C@@H](NC(=O)Cc3cccs3)[C@H]2SC1; assay: Steady-state hydrolysis kinetics; conditions: other: CMY-2, PBS pH 7.2, 25°C
Description: as §1
as §2, with “The enzyme concentration was 1–10 nM.” left out

[10] = tested on: O=C(Cc1cccs1)N[C@@H]1C(=O)N2C(C(=O)O)=C(/C=C/c3ccc([N+](=O)[O-])cc3[N+](=O)[O-])CS[C@H]12; assay: Steady-state hydrolysis kinetics; conditions: other: CMY-2, PBS pH 7.2, 25°C
Description: as §1
as §2, with “The enzyme concentration was 1–10 nM.” left out

[11] = substrate 100 µM, 100–200 nM enzyme

| Compound | Km [1] [µM] | kcat [1] [s⁻¹] | Km (CMY-185) [µM] | kcat (CMY-185) [s⁻¹] | Km (V211S (CMY-42)) [µM] | kcat (V211S (CMY-42)) [s⁻¹] | Km [2] [µM] | kcat [2] [s⁻¹] | also measured |
| --- | --- | --- | --- | --- | --- | --- | --- | --- | --- |
| CC(C)(O/N=C(\C(=O)N[C@@H]1C(=O)N2C(C(=O)[O-])=C(C[n+]3ccccc3)CS[C@H]12)c1csc(N)n1)C(=O)O [Ceftazidime, ceftazidime] | 5.3 ± 0.5 | 0.077 ± 0.003 | 2.2 ± 0.3 | 0.1 ± 0.0 | 74 ± 10 | 1.5 ± 0.2 | 37 ± 2 | 0.3 ± 0.0 | hydrolysis (CMY-2 [3]): no apparent hydrolysis; hydrolysis [4, 11]: no apparent hydrolysis; hydrolysis (CMY-2 variant N346Y [5]; [11]): no apparent hydrolysis; Ki (CMY-2 [6]): 700 ± 100 nM; Ki [7]: 300 nM; Ki (CMY-2 variant N346Y [8]): 700 ± 200 nM |
| CC(=O)OCC1=C(C(=O)O)N2C(=O)[C@@H](NC(=O)Cc3cccs3)[C@H]2SC1 [Cephalothin, cephalothin] | 18 ± 3 | 42 ± 5 | 19 ± 1 | 14 ± 1 | 7.5 ± 1.1 | 83 ± 7 | 4.4 ± 0.3 | 9.6 ± 0.2 | Km ([4]; PBS pH 7.2, 25°C): 1400 ± 100 nM; kcat ([4]; PBS pH 7.2, 25°C): 3.3 ± 0.1 s⁻¹; Km (CMY-2 variant N346Y [5]; PBS pH 7.2, 25°C): 3.9 ± 0.1 µM; kcat (CMY-2 variant N346Y [5]; PBS pH 7.2, 25°C): 18 ± 7 s⁻¹ |
| CMY-2 (Klebsiella pneumoniae) |  |  |  |  |  |  |  |  | Km [9]: 4.1 ± 0.3 µM; kcat [9]: 54 ± 0.8 s⁻¹; kcat/Km [9]: 1.3e+07 ± 1e+06 M⁻¹ s⁻¹; Km [10]: 17 ± 5 µM; kcat [10]: 240 ± 50 s⁻¹; kcat/Km [10]: 1.4e+07 ± 5e+06 M⁻¹ s⁻¹ |
